One data set deals with Suiss female rats. Put plainly: Acute toxicity (LD₅₀). The data set is classed as in vivo. The settings on record: for acute toxicity lower than the one of physostigmine: relative to physostigmine. On the procedure: (§1) The LD₅₀ acute toxicity of the compounds obtained in Examples 2,3,4 and 6 has evaluated on Suiss female rats.
(§2) The compounds were administered per os and endovenously to different groups of animals in the form of tatrates dissolved in water. (The endovenous administration provides the highest bio-availability of the products). The results are shown in Table 3, together with the comparison ones obtained employing physostigmine.

The target of data set [1] is T1, Electric Eel acetylcholinesterase, type V.S. (Electrophorus electricus, UniProt O42275).
T1 construct: purchased Sigma Chemicals type V.S
T1 sequence (O42275 24-633): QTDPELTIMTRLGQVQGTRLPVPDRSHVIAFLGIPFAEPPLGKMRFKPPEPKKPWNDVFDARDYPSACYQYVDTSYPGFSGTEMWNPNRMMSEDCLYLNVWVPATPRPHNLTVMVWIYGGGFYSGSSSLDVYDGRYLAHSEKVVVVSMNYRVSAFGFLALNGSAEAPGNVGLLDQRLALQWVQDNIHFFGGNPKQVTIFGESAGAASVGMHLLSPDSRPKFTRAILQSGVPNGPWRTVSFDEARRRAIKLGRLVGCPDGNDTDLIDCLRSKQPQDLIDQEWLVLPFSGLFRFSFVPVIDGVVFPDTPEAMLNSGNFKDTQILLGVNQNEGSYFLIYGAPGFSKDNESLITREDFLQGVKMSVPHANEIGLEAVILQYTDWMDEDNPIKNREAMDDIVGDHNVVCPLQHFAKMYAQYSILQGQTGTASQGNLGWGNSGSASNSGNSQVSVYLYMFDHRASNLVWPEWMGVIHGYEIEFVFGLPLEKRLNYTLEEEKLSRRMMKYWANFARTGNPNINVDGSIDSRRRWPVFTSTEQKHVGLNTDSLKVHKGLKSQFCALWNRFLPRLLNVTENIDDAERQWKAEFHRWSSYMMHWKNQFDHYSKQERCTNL
The experiment in a line: Acetylcholinesterase inhibiting activity, test in vitro (Ellman method). The settings on record: 20 min incubation, 25°C, phosphate buffer pH 8. The data set is classed as biochemical. On the procedure:
The acetylcholinesterase activity was determined by the method of Ellman et al. (Ellman, G.L. Courtney, K.D. Andres, V., Featherstone, R.M. A new and rapide colorimetric determination of acetylcholinesterase activity - Biochem. Pharm., 1961, 7, 88).
The Electric Eel acetylcholinesterase, type V.S. of Sigma Chemicals was employed.
To determine IC₅₀, the incubation medium consisted of: Ellman reagent (5,5'-Dithiobis-2-nitrobenzoic acid) 100 µl; enzymatic solution (5,5 units/ml) 35 µl; variable concentration inhibitor 50 µl; phosphate buffer (0.1 mol/l; pH 8) 3000 µl. After 20 min. incubation, 20 µl acetylcholine (0.075 mol/l) are added, and the spectrophotomer, with kinetic software and thermostated at 25°C, was read for 3-5 min. At this point the reaction is in the stationary state. The concentrations of the products apt to inhibit by 50% (IC₅₀) the enzyme activity were calculated.

The target in data set [2] is T2, brain acetylcholinesterase (Rattus norvegicus, UniProt P37136).
T2 construct: from tissue; host or cells: brain of male CD/SD rats
T2 sequence (P37136 32-614): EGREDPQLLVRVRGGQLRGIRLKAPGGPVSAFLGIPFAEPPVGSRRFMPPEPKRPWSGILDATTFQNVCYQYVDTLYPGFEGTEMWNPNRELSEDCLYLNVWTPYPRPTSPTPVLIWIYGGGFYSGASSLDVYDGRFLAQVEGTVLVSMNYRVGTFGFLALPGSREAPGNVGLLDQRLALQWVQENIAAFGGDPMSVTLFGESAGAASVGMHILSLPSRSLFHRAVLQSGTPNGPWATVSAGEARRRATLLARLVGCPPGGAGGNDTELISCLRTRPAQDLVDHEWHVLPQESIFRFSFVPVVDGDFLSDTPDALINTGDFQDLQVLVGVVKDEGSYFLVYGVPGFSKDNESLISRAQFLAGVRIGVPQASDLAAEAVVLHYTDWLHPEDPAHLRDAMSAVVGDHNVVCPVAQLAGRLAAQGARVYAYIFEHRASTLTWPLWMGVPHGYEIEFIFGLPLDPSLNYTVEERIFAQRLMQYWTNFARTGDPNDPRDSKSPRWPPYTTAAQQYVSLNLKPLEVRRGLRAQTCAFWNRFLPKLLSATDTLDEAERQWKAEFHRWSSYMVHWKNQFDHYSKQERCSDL
The experiment in a line: Brain acetylcholinesterase activity after oral administration to rats (enzymatic dosage, Ellman method on isolated brains). The data set is classed as in vivo, male CD/SD rats. The settings on record: 50 mg/kg by gastric probe as tartrates in water, vs control group, individual animals; for % Variation of acetylcholinesterase at time 10′: 10′ after treatment; for % Variation of acetylcholinesterase at time 60′: 60′ after treatment; for % Variation of acetylcholinesterase at time 120′: 120′ after treatment. How it is done:
The effects of the compounds of Examples 2 and 3 on the brain acetylcholinesterase activity of male CD/SD rats evaluation were administered by gastric probe at the dose of 50 mg/kg in the form of tartrates dissolved in water. The rats were previously kept from eating for 18 hrs. One group of rats treated by or with physiological solution served as control. The rats were sacrificed by decapitation at various times after the treatment with the products under examination. On the isolated brains the acetylcholinesterase activity was determined by the Ellman et al. method employed in the "vitro" tests.
The percentage variation of the acetylcholinesterase activity in the brain of the rats treated by or with the brains of rats treated with physiological solution (control group) was calculated.
In general terms: DTNB colorimetry detects thiols as they appear.

Another data set can be described thus: Acute toxicity (LD₅₀). The settings on record: rat, tartrates dissolved in water. The data set is classed as in vivo, Suiss female rats. How it is done: as §1, §2
A further data set has as its target acetylcholinesterase (Homo sapiens, UniProt P22303). Particulars: literature data; cited from earlier work.
[3] abbreviates: water, iv, endovenous, read-out: LD₅₀ endovenous.
[4] abbreviates: water, po, oral (per os), read-out: LD₅₀ oral.

Structures are written as SMILES. Values joined by “and” are separate entries in the source; they are usually repeats but may differ in a detail not shown here. Identical values can stand only once. Like-named read-outs stand apart in the source and are kept apart here.

Chain of acetylcholinesterase (P22303 32-614): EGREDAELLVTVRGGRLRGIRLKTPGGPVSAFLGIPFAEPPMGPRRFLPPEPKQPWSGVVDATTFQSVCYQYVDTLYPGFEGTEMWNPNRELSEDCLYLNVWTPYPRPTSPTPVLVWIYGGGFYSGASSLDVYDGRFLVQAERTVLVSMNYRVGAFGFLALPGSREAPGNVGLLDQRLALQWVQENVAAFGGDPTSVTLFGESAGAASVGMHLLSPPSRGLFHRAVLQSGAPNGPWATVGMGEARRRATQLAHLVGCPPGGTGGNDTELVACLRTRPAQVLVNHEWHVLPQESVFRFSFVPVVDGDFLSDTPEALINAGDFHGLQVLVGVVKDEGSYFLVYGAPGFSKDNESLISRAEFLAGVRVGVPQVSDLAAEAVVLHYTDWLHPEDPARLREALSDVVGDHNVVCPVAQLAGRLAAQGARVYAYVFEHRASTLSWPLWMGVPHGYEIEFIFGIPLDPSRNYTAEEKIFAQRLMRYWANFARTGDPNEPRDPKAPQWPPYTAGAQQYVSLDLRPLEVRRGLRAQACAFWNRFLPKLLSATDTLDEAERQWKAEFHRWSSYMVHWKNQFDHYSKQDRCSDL

With `CCCN(C)C(=O)Oc1ccc2c(c1)[C@]1(C)CCN(C)[C@@H]1N2C` (relative stereo) [Example 2, 1,2,3,3a,8,8a-hexaydro-1,3a,8-trimethylpyrrol(2,3-b)indol-5-ol(3aS-cis)-N-methyl,N-propylcarbamate (ester)], the LD₅₀ endovenous with Suiss female rats (tartrates dissolved in water) is >50 mg/kg and <100 mg/kg. Further, the LD₅₀ oral in the data set on Suiss female rats (oral (per os), tartrates dissolved in water) was >100 mg/kg and <150 mg/kg. In data set [1], this molecule came in with an IC50 of 1100 nM.

For `CCCCCN(C)C(=O)Oc1ccc2c(c1)[C@]1(C)CCN(C)[C@@H]1N2C` [Example 3, 1,2,3,3a,8,8a-hexahydro-1,3a,8-trimethylpyrrol(2,3-b)indol-5-ol(3aS-cis)-N-methyl,N-pentylcarbamate (ester)], in data set [2], the “% Variation of acetylcholinesterase at time 10′” value was -60,1% and -53,8%; the “% Variation of acetylcholinesterase at time 60′” value was -69,6% and -70,9%; the “% Variation of acetylcholinesterase at time 120′” value was -72,0% and -68,0%. The molecule also yielded an LD₅₀ endovenous with Suiss female rats (tartrates dissolved in water) below 100 mg/kg. For the same molecule, in the data set on Suiss female rats, the “acute toxicity lower than the one of physostigmine” value is on record as “approximately 100 times”. Besides, the LD50 in “Acute toxicity (LD₅₀)” (setting [3]) was above 50 mg/kg. Besides, in the data set “Acute toxicity (LD₅₀)” (setting [4]), the LD50 is above 178 mg/kg. This molecule also came in with an IC50 in data set [1] of 1900 nM.

Consider `CCCCCCCN(C)C(=O)Oc1ccc2c(c1)[C@]1(C)CCN(C)[C@@H]1N2C` [Example 4, 1,2,3,3a,8,8a-hexahydro-1,3a,8-trimethylpyrrol(2,3-b)indol-5-ol (3aS-cis) N-methyl,N-heptylcarbamate (ester)], for which, in data set [2], the “% Variation of acetylcholinesterase at time 10′” value was 0% and 5,7%; the “% Variation of acetylcholinesterase at time 60′” value was -52,7% and -47,1%; the “% Variation of acetylcholinesterase at time 120′” value was -54,5% and -56,5%. Besides, the LD₅₀ endovenous with Suiss female rats (tartrates dissolved in water) is given as below 100 mg/kg. For the same molecule, in the data set with Suiss female rats, the “acute toxicity lower than the one of physostigmine” value is “approximately 100 times”. For the same molecule, the LD50 in the data set “Acute toxicity (LD₅₀)” (setting [3]) is above 50 mg/kg. Besides, the LD50 in the data set “Acute toxicity (LD₅₀)” (setting [4]) was above 200 mg/kg. In data set [1], this molecule registered an IC50 of 3500 nM.

Regarding `CN(Cc1ccccc1)C(=O)Oc1ccc2c(c1)[C@]1(C)CCN(C)[C@@H]1N2C` [Example 6, 1,2,3,3a,8,8a-hexahydro-1,3a,8-trimethylpyrrol.(2,3-b)indol-5-ol (3aS-cis) N-methyl,N-benzyl carbamate (ester)], the figures for the LD50 in “Acute toxicity (LD₅₀)” (setting [3]) and in “Acute toxicity (LD₅₀)” (setting [4]) were below 50 mg/kg and around 70 mg/kg, respectively. In addition, in data set [1], half-maximal inhibition (IC50) required 1000 nM.

For the molecule `CNC(=O)Oc1ccc2c(c1)[C@]1(C)CCN(C)[C@@H]1N2C` [Physostigmine], the LD50 came out at 0.58 mg/kg in “Acute toxicity (LD₅₀)” (female, Suiss, in vivo, intravenous, endovenous, read-out: LD₅₀ endovenous) and 2.2 mg/kg in “Acute toxicity (LD₅₀)” (female, Suiss, in vivo, po, oral (per os), read-out: LD₅₀ oral).

With `CCN(CC)C(=O)Oc1ccc2c(c1)C1(C)CCN(C)C1N2C` (stereo not shown) [diethylphysostigmine], the acetylcholinesterase inhibiting activity result on acetylcholinesterase is reported as “low inhibiting activity”.

As usually defined, the IC50 is the concentration that gives 50% inhibition. Low values mean higher potency, high ones lower potency.

The values above are taken from patent publication EP0486958A1, “Physostigmine derivatives” (MEDIOLANUM FARMACEUTICI s.r.l., priority 1990, dated 1992).
